Measurements published in patent US12595504B2, “Methods for screening compounds for bactericidal activity and for determining the sensitivity of bacterial samples” (priority 2020, dated 2026).
Read-outs that look alike come from different tables or passages of the source.

How the values were obtained:
[1] = test system: biofilm of the multidrug-resistant Staphylococcus aureus USA300 strain; experiment: Drug dependent ATP release from biofilm; format: cell-based; details: washed biofilm, 37° C., FIG. 20b
Experimental: FIG. 20. Drug dependent ATP release from biofilm of the multidrug-resistant Staphylococcus aureus USA300 strain. A, Control experiment at 37° C. in absence of antibiotic. Biofilms were washed with MOPS medium prior to be exposed to neomycin in the bioluminescent assay. Biofilms were obtained as described in the Examples section and washed twice with MOPS-G medium. Wash solutions were tested for the presence of ATP with the bioluminescence assay. […] Washed biofilms were then tested for ATP release. Signals were present in the first 40 min. This ATP release probably originates from shaking of the biofilm in the plate reader with physical perturbation of the biofilm. B, Biofilm response at 37° C. to drug exposure.
Biofilms were produced by following standard protocols. Briefly, S. aureus USA300 was incubated overnight in tryptic-soy broth (with 0.25% glucose) at 37° C. with 180 rpm agitation. Wells of a FLUOTRAC™ microplate (sterilized beforehand) were then filled with 150 μl of the inoculated broth previously diluted to obtain average concentrations between 10^5-10^6 CFU/ml. The microplate was covered and incubated at 37° C. for 18 hours. Biofilms were then washed twice with 150 μl of MOPS. 80 μl of the wash solution was not discarded and placed in an adjacent well to observe the quantity of ATP it contained. […]

S. aureus USA300 = experiment: CFU kill assay of stationary phase cells with or without centrifugation; format: cell-based, Staphylococcus aureus
Experimental: FIG. 4. A. Centrifugation with change for fresh medium prior to aminoglycoside exposure stimulates drug bactericidal effect. S. aureus USA300 in TSB medium with 0.25% glucose was incubated until stationary phase has been reached at 37° C. Cells were either centrifuged at 12 000 rpm for 5 minutes (+) or placed at 37° C. without centrifugation (≠). After centrifugation, pellets were washed with fresh broth and placed at 37° C. Depending on the test, different concentrations of neomycin were added. S. aureus USA300 samples that were centrifuged and washed with fresh broth are more sensitive to neomycin. For instance, bacterial CFU go below the detection threshold (10^2 CFU/ml) at 2 hours for 8 mM and 2 mM concentrations while it takes 2 more hours for the 0.5 mM concentration. Bars represent the standard error from the mean (SEM) calculated on GraphPad Prism version 8.4.1. B. S. aureus USA300 in TSB medium with 0.25% glucose was incubated until stationary phase has been reached at 37° C. Cells were either centrifuged at 12 000 rpm for 5 minutes or placed at 37° C. without centrifugation. After centrifugation, pellets were washed with fresh broth and placed at 37° C. A volume of 100 μL of fresh media with 4 mM of neomycin was added to all the tubes (final concentration at 2 mM), centrifuged or not, 5, 15, 30, 60 and 120 minutes post-centrifugation. Samples were incubated for a total of 2 hours with the neomycin before being washed three times with PBS 1×, diluted and incubated on tryptic soy agar. The next day, colony forming units/mL were counted. Bars represent the standard deviation (SD) calculated on GraphPad Prism version 8.4.3.

Escherichia coli MG1655 = experiment: Antibiotic MIC determination (serial twofold dilutions, OD600 during 17 hours at 37° C.); format: cell-based
Experimental: The Minimal Inhibitory Concentration (MIC) of the antibiotics was determined under the same culture conditions as the tests using the ATP assay kit. […] An exponentially growing culture (OD600=0.3) was added to each well (60 μl/well) of a sterile microtiter plate containing the test concentration of antibiotic (40 μl/well). The volume was completed to 120 μl with medium and OD600 nm measurements were performed using a microtiter plate reader (Infinite 200 PRO, TECAN) during 17 hours at 37° C.
In all the following experiments, the MIC values were measured for each antibiotic with parameters such as temperature, OD600 and equipment identical to those used for the bioluminescence assay.

E. coli = experiment: Survival assay (kill curves, CFU) with neomycin; format: cell-based, Escherichia coli; details: different neomycin concentrations, LB
[2] = test system: E. coli MG1655 reporter cells; format: cell-based, Escherichia coli
Experimental: The classical luciferase was from Molecular Probes (ATP Determination Kit (A22066)). The thermostable luciferase was from “CheckLite AT100” (kikkoman). The Luciferin-luciferase reagents were prepared following manufacturer instructions. Bacteria from exponentially growing cultures (OD600=0.3) were added to each well (60 μl/well) of a black 96-microtiter plate (Greiner Bio-one, 655076) and 20 μl of the luciferin-luciferase reagent solution was added. The microtiter plate was incubated 5 min at 37° C. for reaction with the luciferase to eliminate traces of extracellular ATP. Then 40 μl of antibiotic solution (3 times concentrated) prepared in the culture medium were added. Bioluminescence of each well was monitored for 4 hours under shaking (218 rpm) and at 28 or 37° C., depending on the experiments (see legends of Figures). The reagent stability in presence or absence of antibiotics was checked in control experiments without bacteria but with 4 pmoles of ATP. Tests were also performed in 384-microtiter plates (Greiner Bio-one, 784076).
Aminoglycosides are bactericidal antibiotics causing translational miscoding with lethal consequences for the cell. Leakage of small molecules following an aminoglycoside shock was previously identified by different methods including radiolabelling. Therefore, the inventors investigated the response of live cells to aminoglycoside stress.

E. coli MG1655 KanR = experiment: ATP leakage assay on aminoglycoside resistant strain (KanR, APH(3′)-IIa); format: cell-based, Escherichia coli; details: MOPS minimal medium (glucose 0.4%), increasing concentrations, 37° C.
Experimental: FIG. 7. Absence of ATP leakage with an aminoglycoside resistant strain E. coli MG1655. The resistant strain (MG KanR) contains the gene for expression of the aminoglycoside O-phosphotransferase APH(3′)-IIa. ATP release of resistant (KanR) or non-resistant (WT) MG 1655 E. coli cells exposed in MOPS minimal medium (glucose 0.4%) to increasing concentrations of neomycin at 37° C. ATP leakage was absent for the resistant strain (KanR).
The classical luciferase was from Molecular Probes (ATP Determination Kit (A22066)). The thermostable luciferase was from “CheckLite AT100” (kikkoman). The Luciferin-luciferase reagents were prepared following manufacturer instructions. Bacteria from exponentially growing cultures (OD600=0.3) were added to each well (60 μl/well) of a black 96-microtiter plate (Greiner Bio-one, 655076) and 20 μl of the luciferin-luciferase reagent solution was added. The microtiter plate was incubated 5 min at 37° C. for reaction with the luciferase to eliminate traces of extracellular ATP. Then 40 μl of antibiotic solution (3 times concentrated) prepared in the culture medium were added. Bioluminescence of each well was monitored for 4 hours under shaking (218 rpm) and at 28 or 37° C., depending on the experiments (see legends of Figures). The reagent stability in presence or absence of antibiotics was checked in control experiments without bacteria but with 4 pmoles of ATP. […]

[3] = Comparative stability assay of classical and thermostable luciferase at 37° C.; format: physicochemical
Experimental: For performing this assay, a classical luciferase (firefly luciferase; Molecular Probes ATP determination kit A22066) and the thermostable luciferase (Checklite kit, Kikkoman, AAE43251.1) were used according to the manufacturer's instructions. Both types of luciferases were added to rich LB or minimal MOPS-Glucose media pre-heated at 37° C. At various times during incubation, aliquots of the solutions were collected, supplemented with reagents and mixed with 0.8 pmole of ATP for bioluminescence readings. Immediately after mixing, bioluminescence measurements were performed at 37° C. using an InfinitePro200, TECAN plate reader in a total volume of 12 μL on a 384-wells microtiter plate (Greiner Bio-one, 784076).

Neomycin
ATP release from biofilm [1]: triggered ATP release
Time at which bacterial CFU go below the detection threshold (10^2 CFU/ml) (S. aureus USA300; 0.5 mM, samples centrifuged and washed, compared with 8 mM and 2 mM): 2 more hours
Time at which bacterial CFU go below the detection threshold (10^2 CFU/ml) (S. aureus USA300; 2 mM, samples centrifuged and washed with fresh broth): 2 hours
Time at which bacterial CFU go below the detection threshold (10^2 CFU/ml) (S. aureus USA300; 8 mM, samples centrifuged and washed with fresh broth): 2 hours
MIC in LB (Escherichia coli MG1655; LB medium, OD600 0.15 final, 37° C.): 22.8 mg/L
MIC in MOPS glucose 0.4% (Escherichia coli MG1655; MOPS minimal medium glucose 0.4%, 37° C.): 0.8 mg/L
Experimental MIC (Escherichia coli MG1655; Mueller Hinton media, EUCAST inoculum): 3.12 mg/L
Number of colonies forming units (CFU) during the first 90 minutes (E. coli): remained constant
Shape of ATP release trace ([2]; LB medium, 37° C., FIG. 8): bi-phasic
Shape of ATP release trace ([2]; MOPS minimal medium (glucose 0.4%), FIG. 11): monophasic
Lag time before ATP ([2]; antibiotic at 5.6 μg/mL, LB, 37° C.): 48.6 min
Lag time before ATP ([2]; antibiotic at 11.25 μg/mL, LB, 37° C.): 42.4 min
Lag time before ATP ([2]; antibiotic at 22.8 μg/mL, LB, 37° C.): 16.3 min
Lag time before ATP ([2]; antibiotic at 45.0 μg/mL, LB, 37° C.): 12.8 min
Lag time before ATP ([2]; antibiotic at 91.0 μg/mL, LB, 37° C.): 9.4 min
Lag before ATP release (shortest, incompressible value) ([2]; highest concentrations tested, LB, 37° C.): about 9.4 min
ATP leakage (E. coli MG1655 KanR): absent

classical firefly luciferase: firefly luciferase; Molecular Probes ATP determination kit A22066, not thermostable
Loss of activity ([3]; LB medium, after 12 minutes of incubation): 70%
Loss of activity ([3]; minimal MOPS-G medium, in 30 minutes): more than 80%
